Data taken from patent US8222434B1, “Bactobolin analog and synthesis method thereof” (priority 2009, dated 2012).
Entries after “also recorded” stand apart in the source; their conditions may differ.

How the values were obtained:
BtaR2 [1] = assay type: cell-based, B. thailandensis
B. thailandensis JBT112 = assay type: cell-based, Burkholderia thailandensis
BtaR2 [2] = assay type: cell-based, B. thailandensis; details: 3 h
B. subtilis = assay type: cell-based, Bacillus subtilis; details: disc soaked in sterile medium containing 2 μM 3OHC10-HSL; B. subtilis lawn
E. faecalis V583 (VRE) = assay: CLSI microtiter MIC assay; assay type: cell-based, Enterococcus faecalis; details: 24 hours at 35° C., average from two independent experiments
Protocol: (§1) To test the potency of bactobolins, antibiotic assays were carried out against the human pathogens MRSA, VRE and V. parahaemo-lyticus, and against B. subtilis and E. coli (Table 3-C).
(§2) The minimum inhibitory concentrations (MIC) of each bactobolin was determined according to the 2003 guidelines of the Clinical and Laboratory Standards Institute (CLSI, formerly NCCLS) using the microtiter MIC method. Inocula for each test organism were prepared by suspending a colony from an LB agar plate into Tryptic Soy Broth and growing for 3-5 hours at 35° C. with shaking, then adjusting the culture turbidity in PBS to the equivalent of a 1.0 McFarland Standard (3×10^8 CFU/ml). These cell suspensions were used as inocula for microtiter MIC assays. 2.5 μL inoculum, which corresponded to 1×10^6 cells, was added to a 200 μL well containing each bactobolin diluted in cation-adjusted Mueller-Hinton II broth (actual CFU/ml ranged from 5×104 to 1×106), and these were incubated without shaking for 24 hours at 35° C. The MIC was defined as the lowest concentration of bactobolin (μg/ml) in which bacterial growth in the well was not measurable by determining the turbidity at 595 nm (A595) on a 96-well plate reader. See Table S8 for strains used in these assays.

S. aureus COL (MRSA) = assay: CLSI microtiter MIC assay; assay type: cell-based, Staphylococcus aureus; details: for Minimum Inhibitory Concentration (MIC): S. aureus COL (MRSA), 24 hours at 35° C., average from two independent experiments
Protocol: as §1, §2

[3] = system: V. parahaemolyticus LM5674; assay: CLSI microtiter MIC assay; assay type: cell-based, Vibrio parahaemolyticus
Protocol: as §1, §2

E. coli ATCC25922 = assay: CLSI microtiter MIC assay; assay type: cell-based, Escherichia coli; details: 24 hours at 35° C., average from two independent experiments
Protocol: as §1, §2

B. subtilis 3610 = assay: CLSI microtiter MIC assay; assay type: cell-based, Bacillus subtilis; details: 24 hours at 35° C., average from two independent experiments
Protocol: as §1, §2

[4] = system: MRSA, VRE and V. parahaemo-lyticus, B. subtilis and E. coli; assay: Antibiotic assays of bactobolins, overall comparison; assay type: cell-based; details: comparison over Table 3-C strains
Protocol: as §1, §2

tumor = details: relative to bactobolin; cited from earlier work
E. coli = details: relative to bactobolin; cited from earlier work
translation = details: relative to bactobolin; cited from earlier work
[5] = system: B. thailandensis ΔbtaT (BD44); assay type: cell-based, Burkholderia thailandensis
[6] = system: B. thailandensis ΔbtaI1, I2, I3 (JBT112); assay type: cell-based, Burkholderia thailandensis
[7] = system: B. thailandensis E264 (wt); assay type: cell-based, Burkholderia thailandensis

CCCCCC(O)CC(=O)N[C@H]1CCOC1=O (stereo partly shown) [Bactobolin 3OHC8-HSL]
BtaR2-dependent induction of lacZ (1233 promoter) (BtaR2 [1]): sufficient for BtaR2-dependent induction of lacZ
Restoration of antibiotic production in JBT112 (B. thailandensis JBT112): requires exogenous 3OHC8-HSL or 3OHC10-HSL for antibiotic production
Activation of btaI2-lacZ transcription (BtaR2 [2]): Activation

CCCCCCCC(O)CC(=O)N[C@H]1CCOC1=O (stereo partly shown) [Bactobolin 3OHC10-HSL]
BtaR2-dependent induction of lacZ (1233 promoter) (BtaR2 [1]): sufficient for BtaR2-dependent induction of lacZ
antibiotic activity of acyl-HSL alone, diffusion disc (B. subtilis): not an antimicrobial molecule; also recorded: does not have antibiotic activity
Restoration of antibiotic production in JBT112 (B. thailandensis JBT112): requires exogenous 3OHC8-HSL or 3OHC10-HSL for antibiotic production
Activation of btaI2-lacZ transcription (BtaR2 [2]): Activation

CCCCCCCC(=O)N[C@H]1CCOC1=O [Bactobolin C8-HSL]
Restoration of antibiotic production in JBT112 (B. thailandensis JBT112): unable to restore antibiotic production
Activation of btaI2-lacZ transcription (BtaR2 [2]): no detectable response

CCCCCCCCCC(=O)N[C@H]1CCOC1=O [Bactobolin C10-HSL, N-decanoyl-HSL]
Activation of btaI2-lacZ transcription (BtaR2 [2]): response

CCCCCCCCCCCC(=O)N[C@H]1CCOC1=O [Bactobolin C12-HSL, N-dodecanoyl-HSL]
Activation of btaI2-lacZ transcription (BtaR2 [2]): response

C[C@@H](N)C(=O)N[C@@H]1[C@@H]2C[C@H](O)CC(O)=C2C(=O)O[C@]1(C)C(Cl)Cl [Bactobolin C]
Minimum Inhibitory Concentration (MIC) (E. faecalis V583 (VRE)): >25 µg/mL
Antibiotic effectiveness in words (S. aureus COL (MRSA); MRSA): effective against these strains, though to a lesser extent
Minimum Inhibitory Concentration (MIC) (S. aureus COL (MRSA)): 6.25 µg/mL
Antibiotic effectiveness in words ([3]; V. parahaemolyticus): effective against these strains, though to a lesser extent
Minimum Inhibitory Concentration (MIC) ([3]; V. parahaemolyticus LM5674, 24 hours at 35° C., average from two independent experiments): 1.56 µg/mL
Minimum Inhibitory Concentration (MIC) (E. coli ATCC25922): 25 µg/mL
Minimum Inhibitory Concentration (MIC) (B. subtilis 3610): 12.5 µg/mL

C[C@H](N)C(=O)N[C@@H](C)C(=O)N[C@@H]1[C@@H]2C[C@H](O)CC(O)=C2C(=O)O[C@]1(C)C(Cl)Cl [Bactobolin D]
Minimum Inhibitory Concentration (MIC) (S. aureus COL (MRSA)): 37.5 µg/mL
Minimum Inhibitory Concentration (MIC) (E. coli ATCC25922): >100 µg/mL
Relative potency among bactobolins [4]: weakest analog
Minimum Inhibitory Concentration (MIC) (B. subtilis 3610): 100 µg/mL

C[C@H](N)C(=O)N[C@@H]1[C@H]2C(=C(O)C[C@@H](O)[C@@H]2O)C(=O)O[C@@H]1C [actinobolin]
less active than bactobolin, murine antitumor activity (tumor): 900 fold
less active than bactobolin, E. coli kill-assays (E. coli): 21 fold
less active than bactobolin, in vitro inhibition of translation (translation): 1000 fold

Bactobolin A
Minimum Inhibitory Concentration (MIC) (E. faecalis V583 (VRE)): >25 µg/mL
Minimum Inhibitory Concentration (MIC) (S. aureus COL (MRSA)): 0.78 µg/mL
Minimum Inhibitory Concentration (MIC) (E. coli ATCC25922): 6.25 µg/mL
Relative potency among bactobolins [4]: more potent than bactobolins C and D
Minimum Inhibitory Concentration (MIC) (B. subtilis 3610): 1.56 µg/mL

Bactobolin B
Minimum Inhibitory Concentration (MIC) (E. faecalis V583 (VRE)): 25 µg/mL
Minimum Inhibitory Concentration (MIC) (E. coli ATCC25922): 1.56 µg/mL
Bactobolin B MIC [5]: >25 µg/mL
Bactobolin B MIC [6]: >25 µg/mL
Relative potency among bactobolins [4]: more potent than bactobolins C and D
Minimum Inhibitory Concentration (MIC) (B. subtilis 3610): 0.39 µg/mL
Bactobolin B MIC [7]: >25 µg/mL
